Measurements reported in US20110067123A1, “MAO-B ELEVATION AS AN EARLY PARKINSON'S DISEASE BIOMARKER” (priority 2008, published 2011).
Where two headings read alike, the source gives them in different places.

Columns and labels:
[1] = system: ST dopaminergic synaptosomes; assay: H2O2 (DCF fluorescence) in isolated ST dopaminergic synaptosomes; format: in vivo, mouse; conditions: for elevation of H2O2 levels in ST dopaminergic synaptosomes: dox-induced animals co-treated, DCF fluorescence, FIG. 5C
Experimental: (§1) Dopaminergic and non-dopaminergic striatal synaptosomes were isolated using a modified immuno-magnetic protocol. Briefly, synaptosomes were prepared from dissected striatal tissue. Dopaminergic synaptosomes were isolated using magnetic beads conjugated to anti-rabbit IgG (Miltenyi Biotech) after capturing them using a rabbit anti-DAT antibody (Chemicon). Under a magnetic field, bead-bound synaptosomes were passed through a column and washed; flow-through in the presence of the magnetic field yielded a fraction enriched in non-dopaminergic striatal synaptosomes. Elution performed in the absence of the magnetic field yielded fractions enriched in dopaminergic striatal synaptosomes. Equal quantities of various fractions of the synaptosomes isolated using DAT antibody including the starting material or control, the unbound fraction, the flow-through, the wash and the eluate were subjected to western analysis to assess relative dopaminergic versus non-dopaminergic synaptosomal purification. Western blots were performed using antibodies against TH (Chemicon 1:500), GABA (Chemicon, 1:1000) or SNAP-25 as a synaptic protein normalization control (Chemicon, 1:1000). Band densities were quantified using a Chemimager (Alpha Innotech, San Leandro, Calif.). Approximately 94% synaptosomes in the eluate were dopaminergic according to densitometric evaluation of the western blot.
Hydrogen peroxide levels were measured in the striatal dopaminergic and nondopaminergic synaptosomes prepared as above from various groups of mice. Mice were injected in the tail vein with ˜200 μl of DCFDA (Calbiochem) which was freshly diluted 100× with PBS from a stock of 100 mg/ml in DMSO as modified from Andrews et. al.. […] Hydrogen peroxide in the synaptosomes with or without 1 mg/ml catalase for 30 min after preparation was visualized as DCF fluorescence at 488 nm excitation and 512 nm emission in a Spectramax Gemini fluorescence plate reader. The relative fluorescence was normalized to synaptosomal protein which was quantified using the Bradford reagent, Bio-Rad.

[2] = system: mesencephalic cultures; assay: Extracellular H2O2 in medium of dox-induced mesencephalic cultures (Amplex Red); format: cell-based, mouse; conditions: 10 μM deprenyl, 30 μM EUK189 or 500 nM apocynin, FIG. 4
Experimental: Primary mixed cultures were prepared from the midbrain of 14-day-old mice embryos from MAO-B transgenics and WT controls. Tissue was digested in Neurobasal medium containing 30 U/ml papain and 20 μg/ml DNase at 37° C. for 30 min and mechanically triturated. Dissociated cells were centrifuged at 500×g, resuspended in growth medium (Neurobasal medium supplemented with 10% FBS, 2 mM […], […] supplement without antioxidants, 50 U/ml penicillin, 50 U/ml streptomycin and 50 ng/ml GDNF [57]), and plated on poly-d-lysine-coated 8 well chamber slides (BD-Biocoat) at a density of 10^5 cells per ml. Mixed cultures were grown at 37° C. for 3-5 days before induction with 40 μg/ml doxycycline for 12 hours as per. […] H2O2 in the medium was assayed by Amplex Red per the manufacturer's instructions. Dopaminergic and microglial cell counts were performed following fixation of the cultured cells for 15 min with 4% formaldehyde following by T11^+ (Chemicon) or Iba1^+ (WAKO USA, Richmond, Va.) immunostaining or via uptake of ASP^+ (4-(4-(dimethylamino)styryl)-N-methylpyridinium iodide) (Invitrogen), a fluorescent analogue of dopamine. 10 μM ASP^+ was loaded on to the uninduced or induced cultures in the presence of 20 μM of desipramine to inhibit the norepinephrine transporter which would also take up the dye. ASP^+ fluorescence (red) was visualized in the T11^+ cells after immunostaining with anti-T11 antibody and Alexa fluor 488 conjugated secondary antibody. Averages of manual double blind T11^+ or fluorescent counts of three wells of culture with the same treatment were collected; counts were performed in triplicate.

[3] = system: dopaminergic SN neurons; assay: Stereological TH+ SN cell counts in inducible astrocytic MAO-B transgenic mice; format: in vivo, mouse; conditions: dox-induced transgenic mice; co-treatment i.p. 10-30 mg/kg/day for two weeks; FIG. 3A
[4] = system: mitochondrial complex I; assay: Mitochondrial complex I activity in isolated ST dopaminergic synaptosomes; format: in vivo, mouse; conditions: dox-induced animals co-treated
Experimental: as §1, with “blot. […]” for “blot.”

[5] = system: SN dopaminergic neurons; assay: Mitochondrial superoxide in vivo (Mitosox Red) in SN dopaminergic neurons; set-up: species or system mouse; conditions: for increases in mitosox red fluorescence within dopaminergic SN neurons: dox-induced transgenics, co-treatment, FIG. 6; for Mean pixel intensity per cell / Total pixel fluorescence per cell: superoxide (mitosox red) in SN dopaminergic neurons, dox-induced plus co-treatment
Experimental: Mitosox Red (Molecular Probes) was used as an indicator to assess presence of superoxide within cellular mitochondria. 10 μg of Mitosox in 200 μl phosphate-buffered saline was injected into the tail vein of dox-induced transgenics versus controls. Animals were sacrificed 90 minutes later, brains rapidly dissected out and post-fixed overnight in 4% paraformaldehyde. Brains were sectioned at 30 μm using a cryostat. Cellular localization and site of Mitosox Red accumulation in the nigrostriatum was identified by immunofluorescence using anti-TH (Chemicon, 1:500), anti-IBA1 (Wako, 1:500) or anti-GFAP (DAKO, 1:500) antibodies visualized with Fluorescein Avidin D. Mitochondrial localization was confirmed by immunoanalysis using an anti-ATP synthase-specific antibody. Fluorescent imaging was done using a Zeiss LSM510 NLO confocal microscope and images procured using LSM software. Quantification of colocalization and fluorescent intensity was determined using the IMARIS software suite (Bitplane AG, Zurich, Switzerland) on selected cells from multiple sections.

[6] = Striatal MPP+ levels by HPLC after MPTP injection; format: in vivo, mouse; conditions: 30 mg/kg MPTP, 90 minutes post injection
Experimental: (§2) Striatal tissue was harvested from dox versus untreated animals 90 minutes following injection of 30 mg/kg MPTP intraperitoneally, immediately immersed in ice cold 0.1 M perchloric acid and sonicated. MPP^+ was measured by HPLC as previously described. Dopamine levels were analyzed in striata dissected two weeks of induction or 24 hrs following MPTP injection post induction by HPLC followed by a 464 pulsed electrochemical detection (Neurochemistry Core, Center for Molecular Neuroscience, Vanderbilt University). Stereological cell counts were performed on immunostained brain sections from brains harvested two weeks after induction using either antibody against tyrosine hydroxylase (TH, Chemicon, 1:500) followed by biotin-labeled secondary antibody and development using DAB (Vector Laboratories). TH^+ cells were counted stereologically throughout the SNpc. Counts for dox removal were performed on brains dissected after removal of dox from the feed for a three week period. Sections were cut at a 40 μm thickness, and every 4th section was counted using a grid of 100×100 μm. Dissector size used was 35×35×12 μm. Neuronal numbers were assessed following NeuN^+ (Chemicon, 1:100) or GABA^+ (Chemicon, 1:1000) immunostaining and astrocytes via GFAP^+ (DAKO, 1:500) and s100-â (DAKO, 1:200) immunostaining. Cells were counted in the SN, striata, and cortex in three independent sections per condition and ten fields per section. […] Dopaminochrome was measured from striatal samples by HPLC as per Ochs et al.
To validate that our transgenic model expresses functionally active MAO-B, we assessed its vulnerability to acute systemic MPTP administration. […] Induced and uninduced transgenic mice and wildtype C57B16 littermates were treated with 30 mg/kg MPTP and striatal MPP levels measured via HPLC (Table 1). […]

[7] = system: tyrosine hydroxylase positive (TH+) cells in mesencephalic cultures; assay: TH+ dopaminergic cell counts and morphology in dox-induced mesencephalic cultures; format: cell-based, mouse; conditions: 40 μg/ml dox, twelve hours; deprenyl co-treatment (10 μM); FIG. 2A
[8] = system: astroglia; assay: Astrocyte activation by GFAP immunostaining in induced transgenic mice; format: in vivo, mouse; conditions: dox-treated transgenic mice, deprenyl co-treatment
Experimental: as §2, with “Stereological cell counts were performed on immunostained brain sections from brains harvested two weeks after induction using either antibody against tyrosine hydroxylase (TH, Chemicon, 1:500) followed by biotin-labeled secondary antibody and development using DAB (Vector Laboratories).” left out, “Counts for dox removal were performed on brains dissected after removal of dox from the feed for a three week period.” left out, “Dissector size used was 35×35×12 μm.” left out
Immunochemistry was performed on cryosections derived from the SN, striata, and CTX of fixed perfused brains from dox-induced transgenics versus controls. Astrocytic activation was assessed using primary antibodies against GFAP and s100-β. […]

[9] = system: microglia; assay: Microglial activation (Iba1 immunochemistry) in the SN; format: in vivo, mouse; conditions: SN of dox-induced transgenics; FIG. 7B
Experimental: Immunochemistry was performed on cryosections derived from the SN, striata, and CTX of fixed perfused brains from dox-induced transgenics versus controls. Astrocytic activation was assessed using primary antibodies against GFAP and s100-β. Microglial activation was detected using primary antibodies against […] Horse radish peroxidase or avidin-conjugated secondary antibodies were used to detect primary antibodies following either DAB or Fluorescein/Texas Red staining.

[10] = Locomotor behavioral assessment (open field, Truscan); format: in vivo, mouse; conditions: induced mice, dox two weeks, deprenyl-treated
Experimental: Locomotor function was assessed using an automated Truscan photobeam apparatus (Colbourne Instruments, Allentown, Pa.) under illumination as previously described. Animals were habituated to the apparatus for 10 min then data collected over a 10-min period followed by analysis using Truscan 99 software. Spontaneous horizontal movement was assessed in both control and dox treated versus untreated transgenic mice via both ambulatory velocity and distance in a 10-min period.

[11] = system: Parkinson's disease (PD) patients; conditions: cited from earlier work; for mortality rate: clinical PD, given after symptoms were present

| Compound | increase in extracellular H2O2 [2] | elevation of H2O2 levels in ST dopaminergic synaptosomes [1] | loss of CI activity in dopaminergic synaptosomes [4] | increases in mitosox red fluorescence within dopaminergic SN neurons [5] | Mean pixel intensity per cell [5] | Total pixel fluorescence per cell [5] | other results |
| --- | --- | --- | --- | --- | --- | --- | --- |
| Catalase | – | – | – | – | – | – | DCF fluorescence of dopaminergic synaptosomes from induced animals ([1]; synaptosomes treated with 1 mg/ml catalase for 30 min after preparation): reduced the fluorescence to below uninduced levels |
| COc1cc(C(C)=O)ccc1O [apocynin] | partial reduction | – | – | – | – | – | – |
| CC(=O)O.CCOc1cccc(C=NCCN=Cc2cccc(OCC)c2[O-])c1[O-].[Mn] [EUK-189] | prevented the increase | preventable | attenuated | prevented | 15.4 ± 4.0 | 126,757 ± 23,798 | dopaminergic SN cell loss [3]: attenuated |
| C[n+]1ccc(-c2ccccc2)cc1 [MPP+] | – | – | – | – | – | – | Striatal MPP+ levels ([6]; Dox (induced transgenic mice)): 182 ± 3.4 ng/mg protein; Striatal MPP+ levels ([6]; No Dox (uninduced transgenic mice)): 118 ± 2.3 ng/mg protein; Striatal MPP+ levels ([6]; WT (wildtype C57Bl6 littermates)): 100 ± 3.5 ng/mg protein |
| C#CCN(C)[C@H](C)Cc1ccccc1 [deprenyl] | prevented the increase | preventable | attenuated | prevented | 10.2 ± 2.1 | 91,937 ± 19,107 | loss in the number of TH+ cells [7]: attenuated; astroglial branching (activation) and increased astroglial brain numbers, GFAP [8]: inhibited; microglial activation [9]: prevented; locomotor activity [10]: completely unaffected; mortality rate [11]: ineffective; mortality rate ([11]; listed as selegiline): no effect; requirement of L-DOPA supplementation ([11]; early stages of symptomatic PD): delayed and reduced |
